Experimental data from patent US10759766B2, “Certain chemical entities, compositions, and methods” (NeuPharma, Inc., priority 2011, dated 2020).

How the values were obtained:
A549 cells = assay: Inhibition of cancer cell growth, MTT assay, A549; type: cell-based; conditions: Homo sapiens, A549, 72 h exposure
Outline: (§1)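 IC50 derived from percent growth inhibition versus concentration, tested in triplicate. Growth inhibition came from MTT read at 570 nm after 72 h drug exposure, relative to viable cells at dosing. Cells (about 4000/well, RPMI 1640 + 10% FBS) adhered 24 h before treatment; final DMSO 1%.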

BRAF V600E = BRAF V600E (Homo sapiens (Human), UniProt P15056, V600E); assay: Z′-LYTE kinase inhibition assay (Invitrogen), BRAF V600E; type: biochemical; conditions: Z′-LYTE method; for inhibition at 1 µM: 1 μM compound, read-out: % inhibition at 1 μM against BRAF V600E; for IC50: read-out: IC50 against BRAF V600E
Sequence of BRAF V600E (P15056 whole entry V600E): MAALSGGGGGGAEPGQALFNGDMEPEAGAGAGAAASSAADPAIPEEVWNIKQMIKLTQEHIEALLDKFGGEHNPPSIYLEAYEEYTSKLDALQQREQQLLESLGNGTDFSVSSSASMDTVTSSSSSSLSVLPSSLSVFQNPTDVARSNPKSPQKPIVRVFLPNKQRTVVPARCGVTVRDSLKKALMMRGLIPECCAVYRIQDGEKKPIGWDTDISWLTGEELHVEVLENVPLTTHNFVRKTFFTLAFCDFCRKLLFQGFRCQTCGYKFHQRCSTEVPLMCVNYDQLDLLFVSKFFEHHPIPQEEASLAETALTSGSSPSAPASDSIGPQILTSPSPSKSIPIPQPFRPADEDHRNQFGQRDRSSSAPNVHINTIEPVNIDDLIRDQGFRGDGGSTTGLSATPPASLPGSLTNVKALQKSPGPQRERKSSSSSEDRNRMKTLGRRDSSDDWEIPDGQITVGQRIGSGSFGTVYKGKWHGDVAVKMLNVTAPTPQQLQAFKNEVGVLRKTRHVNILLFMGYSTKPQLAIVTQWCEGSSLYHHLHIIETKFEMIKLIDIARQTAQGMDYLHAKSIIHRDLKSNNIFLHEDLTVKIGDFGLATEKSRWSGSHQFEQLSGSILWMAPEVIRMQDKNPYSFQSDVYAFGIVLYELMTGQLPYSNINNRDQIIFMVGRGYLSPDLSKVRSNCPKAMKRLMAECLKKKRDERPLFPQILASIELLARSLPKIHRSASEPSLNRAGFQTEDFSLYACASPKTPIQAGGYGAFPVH
Outline: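 FRET-based Z′-LYTE peptide phosphorylation format in 50 mM HEPES pH 7.5, 0.01% BRIJ-35, 10 mM MgCl2, 1 mM EGTA with ATP. Kinase reaction 60 min at room temperature, then protease development step 60 min at room temperature before fluorescence read. IC50 from compound concentration versus percent inhibition.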

BRAF = BRAF (Homo sapiens (Human), UniProt P15056); assay: Z′-LYTE kinase inhibition assay (Invitrogen), BRAF; type: biochemical; conditions: 1 μM compound, Z′-LYTE method; read-out: % inhibition at 1 μM against BRAF
Sequence of BRAF (P15056 whole entry): as the sequence (P15056 whole entry V600E) above, with E600V counted along it
Description: Inhibitory activities Inhibitory activities of compounds against BRAF, and BRAF V600E were measured by Invitrogen using Z′-LYTE® Method as briefly described in the following. 4× Test compounds are dissolved in 1% DMSO. […] ATP solutions are diluted to a 4×ATP working concentration in Kinase Buffer (50 mM HEPES pH 7.5, 0.01% BRIJ-35, 10 mM MgCl2, 1 mM EGTA). Reaction started by 30-second shaking of mixture consisting of 2.5 μL 4× test compound, […] and 2.5 μL 4×ATP Solution on Bar-coded Corning, low volume NBS, black 384-well plate (Corning Cat. #3676). Then the mixture was incubated for 60-minute at room temperature for the kinase reaction, followed by addition of 5 μL of a 1:1024 dilution of development reagent A and 30-second plate shake. The mixture was then incubated for another 60-minute at room temperature for development reaction. Fluorescence was read by plate reader. IC50 was calculated by plotting the concentration of compound vs the percentage of inhibition in treated wells using GraphPad Prism 5.

A375 cells = assay: Inhibition of cancer cell growth, MTT assay, A375; type: cell-based; conditions: Homo sapiens, A-375, 72 h exposure
Outline: as §1

KDR (VEGFR2) = KDR (VEGFR2) (Homo sapiens (Human), UniProt P35968); assay: Z′-LYTE kinase inhibition assay (Invitrogen), KDR; type: biochemical; conditions: Z′-LYTE method; for inhibition at 1 µM: 1 μM compound, read-out: % inhibition at 1 μM against KDR; for IC50: read-out: IC50 against KDR
Sequence of KDR (VEGFR2) (P35968 20-1356): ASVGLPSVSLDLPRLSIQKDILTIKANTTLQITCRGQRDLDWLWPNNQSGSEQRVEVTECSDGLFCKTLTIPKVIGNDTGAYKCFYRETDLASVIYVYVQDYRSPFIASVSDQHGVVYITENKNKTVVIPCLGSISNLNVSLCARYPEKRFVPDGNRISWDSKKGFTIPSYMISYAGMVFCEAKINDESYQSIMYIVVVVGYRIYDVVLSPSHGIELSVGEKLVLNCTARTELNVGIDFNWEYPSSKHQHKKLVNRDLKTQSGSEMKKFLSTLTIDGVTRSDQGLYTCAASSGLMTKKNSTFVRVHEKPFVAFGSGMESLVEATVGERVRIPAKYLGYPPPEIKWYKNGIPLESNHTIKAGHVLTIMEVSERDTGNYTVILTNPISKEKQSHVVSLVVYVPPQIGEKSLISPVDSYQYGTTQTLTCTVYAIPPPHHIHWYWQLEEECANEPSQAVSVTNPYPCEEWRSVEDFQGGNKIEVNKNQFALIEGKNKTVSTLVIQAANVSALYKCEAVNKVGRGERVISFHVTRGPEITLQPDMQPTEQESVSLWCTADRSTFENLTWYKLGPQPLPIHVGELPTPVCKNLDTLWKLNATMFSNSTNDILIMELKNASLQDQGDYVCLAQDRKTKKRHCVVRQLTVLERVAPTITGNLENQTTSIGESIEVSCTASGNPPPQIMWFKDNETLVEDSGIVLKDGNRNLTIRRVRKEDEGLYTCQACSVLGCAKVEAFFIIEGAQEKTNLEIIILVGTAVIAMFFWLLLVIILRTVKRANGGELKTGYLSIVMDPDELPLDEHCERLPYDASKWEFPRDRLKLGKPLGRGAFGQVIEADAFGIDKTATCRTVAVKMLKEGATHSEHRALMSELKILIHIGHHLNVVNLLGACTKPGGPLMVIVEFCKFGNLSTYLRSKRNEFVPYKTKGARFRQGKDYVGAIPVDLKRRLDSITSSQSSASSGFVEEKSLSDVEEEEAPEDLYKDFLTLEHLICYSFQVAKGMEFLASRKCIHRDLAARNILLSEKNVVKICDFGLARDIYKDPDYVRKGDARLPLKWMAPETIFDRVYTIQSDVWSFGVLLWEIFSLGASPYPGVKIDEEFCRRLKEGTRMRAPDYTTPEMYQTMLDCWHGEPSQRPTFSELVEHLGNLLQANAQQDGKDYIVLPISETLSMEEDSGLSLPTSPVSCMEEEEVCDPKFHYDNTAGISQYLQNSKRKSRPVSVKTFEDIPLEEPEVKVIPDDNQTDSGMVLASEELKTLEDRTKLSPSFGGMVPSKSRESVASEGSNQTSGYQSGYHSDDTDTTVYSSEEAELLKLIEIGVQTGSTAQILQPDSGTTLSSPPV
Outline: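 Z′-LYTE FRET assay: 10 μL reactions with 0.5–11.7 ng KDR and 2 μM Tyr 01 peptide in 50 mM HEPES pH 7.5, 10 mM MgCl2, 1 mM EGTA, 0.01% BRIJ-35, 1 h at room temperature. Development Reagent B (1:256) added for 60 min, fluorescence read; IC50 from concentration–inhibition curves.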

Row | Compound | IC50 (A549 cells) [nM] | inhibition at 1 µM (BRAF V600E) [%] | IC50 (BRAF V600E) [nM] | inhibition at 1 µM (BRAF) [%] | IC50 (A375 cells) [nM] | inhibition at 1 µM (KDR (VEGFR2)) [%] | IC50 (KDR (VEGFR2)) [nM]
1 | O=C(Nc1cc(F)c(F)c(C(=O)c2ccc3ncc(N4CCOCC4)nc3c2)c1)c1ccc(Cl)c(C(F)(F)F)c1 [Compound C146, 4-chloro-N-(3,4-difluoro-5-(3-morpholinoquinoxaline-6-carbonyl)phenyl)-3-(trifluoromethyl)benzamide] | 2000 to 5000 | 70 to 89 | > 100 | < 70 | < 1000 | > 89 | < 100
2 | O=C(Nc1cc(F)c(F)c(C(=O)c2ccc3ncc(N4CCOCC4)nc3c2)c1)c1cccc(C(F)(F)F)c1 [Compound C145, N-(3,4-difluoro-5-(3-morpholinoquinoxaline-6-carbonyl)phenyl)-3-(trifluoromethyl)benzamide] | > 5000 | > 89 | < 100 | < 70 | < 1000 | > 89 | < 100
3 | O=C(Nc1cc(F)c(F)c(C(=O)c2ccc3ncc(N4CCOCC4)nc3c2)c1)c1cccc(F)c1 [Compound C144, N-(3,4-difluoro-5-(3-morpholinoquinoxaline-6-carbonyl)phenyl)-3-fluorobenzamide] | 2000 to 5000 | > 89 |  | 70 to 89 | 1000 to 5000 | 70 to 89 | 
4 | O=C(Nc1cccc(C(=O)c2ccc3nccnc3c2)c1)c1ccc(C(F)(F)F)c(Cl)c1 [Compound C107, 3-chloro-N-(3-(quinoxaline-6-carbonyl)phenyl)-4-(trifluoromethyl)benzamide] | > 5000 | > 89 |  | < 70 | 1000 to 5000 | < 70 | 
5 | O=C(Nc1cc(F)cc(C(=O)c2ccc3ncc(N4CCOCC4)nc3c2)c1)Nc1ccc(Cl)c(C(F)(F)F)c1 [Compound C031, 1-(4-chloro-3-(trifluoromethyl)phenyl)-3-(3-fluoro-5-(3-morpholinoquinoxaline-6-carbonyl)phenyl)urea] | 2000 to 5000 | 70 to 89 |  | < 70 | < 1000 | 70 to 89 | 
6 | O=C(Nc1cc(F)cc(C(=O)c2ccc3nccnc3c2)c1)Nc1ccc(Cl)c(C(F)(F)F)c1 [Compound C026, 1-(4-chloro-3-(trifluoromethyl)phenyl)-3-(3-fluoro-5-(quinoxaline-6-carbonyl)phenyl)urea] | 2000 to 5000 | 70 to 89 |  | < 70 | 1000 to 5000 | 70 to 89 | 
7 | O=C(Nc1ccc(F)c(C(=O)c2ccc3nccnc3c2)c1)c1cccc(C(F)(F)F)c1 [Compound C116, N-(4-fluoro-3-(quinoxaline-6-carbonyl)phenyl)-3-(trifluoromethyl)benzamide] | 2000 to 5000 | > 89 |  | 70 to 89 | < 1000 | > 89 | 
8 | O=C(Nc1ccc(F)c(C(=O)c2ccc3ncc(N4CCOCC4)nc3c2)c1)c1cccc(C(F)(F)F)c1 [Compound C141, N-(4-fluoro-3-(3-morpholinoquinoxaline-6-carbonyl)phenyl)-3-(trifluoromethyl)benzamide] | < 2000 | > 89 | < 100 | < 70 | < 1000 | > 89 | < 100
9 | O=C(Nc1cccc(F)c1)Nc1ccc(F)c(C(=O)c2ccc3ncc(N4CCOCC4)nc3c2)c1 [Compound C035, 1-(4-fluoro-3-(3-morpholinoquinoxaline-6-carbonyl)phenyl)-3-(3-fluorophenyl)urea] | 2000 to 5000 | > 89 | < 100 | 70 to 89 | < 1000 | 70 to 89 | < 100
10 | O=C(Nc1ccc(Cl)c(Cl)c1)Nc1ccc(F)c(C(=O)c2ccc3nccnc3c2)c1 [Compound C076, 1-(3,4-dichlorophenyl)-3-(4-fluoro-3-(quinoxaline-6-carbonyl)phenyl)urea] | 2000 to 5000 | > 89 |  | 70 to 89 | < 1000 | 70 to 89 | 
11 | O=C(Nc1cc(F)cc(C(=O)c2ccc3ncc(N4CCOCC4)nc3c2)c1)c1cccc(C(F)(F)F)c1 [Compound C143, N-(3-fluoro-5-(3-morpholinoquinoxaline-6-carbonyl)phenyl)-3-(trifluoromethyl)benzamide] | 2000 to 5000 | > 89 | < 100 | < 70 | < 1000 | 70 to 89 | < 100
12 | O=C(Nc1cc(F)c(F)c(C(=O)c2ccc3ncc(N4CCOCC4)nc3c2)c1)Nc1ccc(Cl)c(C(F)(F)F)c1 [Compound C041, 1-(4-chloro-3-(trifluoromethyl)phenyl)-3-(3,4-difluoro-5-(3-morpholinoquinoxaline-6-carbonyl)phenyl)urea] | < 2000 | 70 to 89 |  | < 70 | < 1000 | 70 to 89 | 
13 | O=C(Nc1cccc(C(=O)c2ccc3nccnc3c2)c1)c1ccc(Cl)c(C(F)(F)F)c1 [Compound C111, 4-chloro-N-(3-(quinoxaline-6-carbonyl)phenyl)-3-(trifluoromethyl)benzamide] | < 2000 | 70 to 89 |  | < 70 | > 5000 | < 70 | 
14 | O=C(Nc1cccc(C(F)(F)F)c1)Nc1cc(F)c(F)c(C(=O)c2ccc3ncc(N4CCOCC4)nc3c2)c1 [Compound C040, 1-(3,4-difluoro-5-(3-morpholinoquinoxaline-6-carbonyl)phenyl)-3-(3-(trifluoromethyl)phenyl)urea] | < 2000 | 70 to 89 | > 100 | < 70 | < 1000 | 70 to 89 | > 100
15 | O=C(Nc1cccc(C(=O)c2ccc3ncc(N4CCOCC4)nc3c2)c1)c1cccc(C(F)(F)F)c1 [Compound C119, N-(3-(3-morpholinoquinoxaline-6-carbonyl)phenyl)-3-(trifluoromethyl)benzamide] | 2000 to 5000 | > 89 | < 100 | 70 to 89 | < 1000 | > 89 | < 100
16 | O=C(Nc1cccc(Cl)c1)Nc1cccc(C(=O)c2ccc3nccnc3c2)c1 [Compound C003, 1-(3-chlorophenyl)-3-(3-(quinoxaline-6-carbonyl)phenyl)urea] | 2000 to 5000 | > 89 |  | 70 to 89 | < 1000 | 70 to 89 | 
17 | O=C(Nc1cc(F)cc(C(=O)c2ccc3ncc(N4CCOCC4)nc3c2)c1)Nc1cccc(C(F)(F)F)c1 [Compound C038, 1-(3-fluoro-5-(3-morpholinoquinoxaline-6-carbonyl)phenyl)-3-(3-(trifluoromethyl)phenyl)urea] | < 2000 | > 89 | < 100 | 70 to 89 | < 1000 | 70 to 89 | < 100
18 | O=C(Nc1ccc(F)c(F)c1)Nc1ccc(F)c(C(=O)c2ccc3ncc(NCCO)nc3c2)c1 [Compound C087, 1-(3,4-difluorophenyl)-3-(4-fluoro-3-(3-((2-hydroxyethyl)amino)quinoxaline-6-carbonyl)phenyl)urea] | 2000 to 5000 | > 89 |  | > 89 | < 1000 | > 89 | 
19 | Cn1cc(-c2cnc3ccc(C(=O)c4cccc(NC(=O)Nc5ccc(Cl)c(C(F)(F)F)c5)c4)cc3n2)cn1 [Compound C028, 1-(4-chloro-3-(trifluoromethyl)phenyl)-3-(3-(3-(1-methyl-1H-pyrazol-4-yl)quinoxaline-6-carbonyl)phenyl)urea] | < 2000 | > 89 | < 100 | 70 to 89 | < 1000 | > 89 | < 100
